Values of other authors in patent US9265822B2 (priority 2009, dated 2016).

System: 2009 H1N1 swine flu virus

Compound	effectiveness against the 2009 "swine" flu
CC(N)C12CC3CC(CC(C3)C1)C2 (stereo not shown) [rimantadine]	not proven effect
CCOC(=O)C1=C[C@@H](OC(CC)CC)[C@H](NC(C)=O)[C@@H](N)C1 [oseltamivir]	effective
NC12CC3CC(CC(C3)C1)C2 [amantadine]	not proven effect
CC(=O)N[C@H]1[C@H]([C@H](O)[C@H](O)CO)OC(C(=O)O)=C[C@@H]1N=C(N)N [zanamivir]	effective
